Earlier results in patent publication US20060074053A1, “Ophthalmic solution containing quinolone antimicrobial compound” (SANTEN PHARMACEUTICAL CO., LTD., priority 2003, published 2006).

Settings: after instillation of ciprofloxacin-containing ophthalmic solution; Am. J. Ophthalmol., 117, pp 258-259 (1994)

In the case of `O=C(O)c1cn(C2CC2)c2cc(N3CCNCC3)c(F)cc2c1=O` [ciprofloxacin], the “precipitate on the surface of the eyes after instillation” value is listed as “liberated as a precipitate on the surface of the eyes (corneal epithelium)”.
